{
  "source": "patent US10213428B2",
  "about": "“(4-((3R,4R)-3-methoxytetrahydro-pyran-4-ylamino)piperidin-1-yl)(5-methyl-6-(((2R,6S)-6-(p-tolyl)tetrahydro-2H-pyran-2-yl)methylamino)pyrimidin-4-yl)methanone citrate” (Centrexion Therapeutics Corporation, priority 2015, dated 2019)",
  "assay_type_in_all_cases": "physicochemical",
  "key": {"[1]": {"experiment": "X-ray powder diffraction: crystallinity and polymorphism", "settings": "for indications for polymorphism: several crystallization experiments", "description": "X-ray powder diagrams were generated using a STOE-STADI P-diffractometer in transmission mode fitted with a MYTHEN-detector and a Cu-anode as X-ray source with monochromatic CuKα1 radiation (λ=1.54056 Å, 40 kV, 40 mA)."}, "[2]": {"experiment": "Dynamic vapour sorption (sorption isotherms, water uptake)", "settings": "for hygroscopic behavior: uptake of water: 25° C.", "description": "Sorption isotherms were generated using an IGAsorp water sorption monitor from Hiden Isochema. […] For BR salt form only: Sorption isotherms were registered on a DVS-1 water sorption monitor from Surface Measurement Systems."}, "[3]": {"experiment": "ThermoGravimetry (loss on drying)", "settings": "TG", "description": "Thermal gravimetry data were collected with a TG instrument from the Q-series of TA Instruments. This method measures weight changes in a material as a function of temperature under a controlled atmosphere."}},
  "note": "Read-outs that look alike come from different tables or passages of the source.",
  "data": [
    {"compound": "CCS(=O)(=O)O.CO[C@H]1COCC[C@H]1NC1CCN(C(=O)c2ncnc(NC[C@H]3CCC[C@@H](c4ccc(C)cc4)O3)c2C)CC1", "note": "[esilate salt of compound I, (4-((3R,4R)-3-methoxytetrahydro-pyran-4-ylamino)piperidin-1-yl)(5-methyl-6-(((2R,6S)-6-(p-tolyl)tetrahydro-2H-pyran-2-yl)methylamino)pyrimidin-4-yl)methanone esilate]", "values": [
      {"measurement": "crystallinity", "setting": "[1]", "result": "high"},
      {"measurement": "crystallinity", "setting": "[1]; listed as esilate salt of compound of formula (I)", "result": "high crystallinity"},
      {"measurement": "indications for polymorphism", "setting": "[1]; listed as Esilate Salt", "result": "no"},
      {"measurement": "indications for polymorphism", "setting": "[1]; listed as esilate", "result": "only one polymorphic form"},
      {"measurement": "hygroscopic behavior: uptake of water", "setting": "[2]; up to 80% r.h. (humidity range 10-80%)", "result": 20, "unit": "%"},
      {"measurement": "hygroscopic behavior: uptake of water", "setting": "[2]; up to 80% r.h. (humidity range 10-80%), listed as Esilate Salt", "result": 20, "unit": "% uptake"},
      {"measurement": "hygroscopic behavior: deliquescence", "setting": "[2]; up to 80% r.h., listed as Esilate Salt", "result": "deliquescent"},
      {"measurement": "hygroscopic behavior: deliquescence", "setting": "[2]; up to 80% r.h., listed as esilate", "result": "irreversibly deliquescent"},
      {"measurement": "hygroscopic behavior: deliquescence", "setting": "[2]; up to 90% r.h.", "result": "deliquescent"},
      {"measurement": "hygroscopic behavior: uptake of water", "setting": "[2]; up to 90% r.h.", "result": 45, "unit": "% uptake"},
      {"measurement": "loss on drying", "setting": "[3]", "result": 2.4, "unit": "%"}
    ]},
    {"compound": "Br.CO[C@H]1COCC[C@H]1NC1CCN(C(=O)c2ncnc(NC[C@H]3CCC[C@@H](c4ccc(C)cc4)O3)c2C)CC1", "note": "[hydrobromide salt of compound I, (4-((3R,4R)-3-methoxytetrahydro-pyran-4-ylamino)piperidin-1-yl)(5-methyl-6-(((2R,6S)-6-(p-tolyl)tetrahydro-2H-pyran-2-yl)methylamino)pyrimidin-4-yl)methanone hydrobromide]", "values": [
      {"measurement": "crystallinity", "setting": "[1]; hydrobromide", "result": "medium"},
      {"measurement": "crystallinity", "setting": "[1]; listed as hydrobromide salt of compound of formula (I), hydrobromide", "result": "medium crystallinity"},
      {"measurement": "indications for polymorphism", "setting": "[1]; listed as Hydrobromide Salt, hydrobromide", "result": "Yes"},
      {"measurement": "indications for polymorphism", "setting": "[1]; listed as hydrobromide, hydrobromide", "result": "Different polymorphic modifications"},
      {"measurement": "hygroscopic behavior: uptake of water", "setting": "[2]; up to 80% r.h. (humidity range 10-80%), hydrobromide", "result": 4.5, "unit": "%"},
      {"measurement": "hygroscopic behavior: uptake of water", "setting": "[2]; up to 80% r.h. (humidity range 10-80%), listed as Hydrobromide Salt, hydrobromide", "result": 4.5, "unit": "%"},
      {"measurement": "hygroscopic behavior: deliquescence", "setting": "[2]; up to 80% r.h., listed as Hydrobromide Salt, hydrobromide", "result": "deli-"},
      {"measurement": "hygroscopic behavior: deliquescence", "setting": "[2]; up to 80% r.h., listed as hydrobromide, hydrobromide", "result": "irreversibly deliquescent"},
      {"measurement": "hygroscopic behavior: deliquescence", "setting": "[2]; up to 90% r.h.", "result": "deli-"},
      {"measurement": "hygroscopic behavior: uptake of water", "setting": "[2]; up to 90% r.h.", "result": 20, "unit": "%"},
      {"measurement": "loss on drying", "setting": "[3]", "result": 2.9, "unit": "%"}
    ]},
    {"compound": "CO[C@H]1COCC[C@H]1NC1CCN(C(=O)c2ncnc(NC[C@H]3CCC[C@@H](c4ccc(C)cc4)O3)c2C)CC1.Cl", "note": "[hydrochloride salt of compound I, (4-((3R,4R)-3-methoxytetrahydro-pyran-4-ylamino)piperidin-1-yl)(5-methyl-6-(((2R,6S)-6-(p-tolyl)tetrahydro-2H-pyran-2-yl)methylamino)pyrimidin-4-yl)methanone hydrochloride]", "values": [
      {"measurement": "crystallinity", "setting": "[1]; hydrochloride", "result": "medium"},
      {"measurement": "crystallinity", "setting": "[1]; listed as hydrochloride salt of compound of formula (I), hydrochloride", "result": "medium crystallinity"},
      {"measurement": "indications for polymorphism", "setting": "[1]; listed as Hydrochloride Salt, hydrochloride", "result": "yes"},
      {"measurement": "indications for polymorphism", "setting": "[1]; listed as hydrochloride, hydrochloride", "result": "Different polymorphic modifications"},
      {"measurement": "hygroscopic behavior: uptake of water", "setting": "[2]; up to 80% r.h. (humidity range 10-80%), hydrochloride", "result": 15, "unit": "%"},
      {"measurement": "hygroscopic behavior: uptake of water", "setting": "[2]; up to 80% r.h. (humidity range 10-80%), listed as Hydrochloride Salt, hydrochloride", "result": 15, "unit": "% uptake"},
      {"measurement": "hygroscopic behavior: deliquescence", "setting": "[2]; up to 80% r.h., listed as Hydrochloride Salt, hydrochloride", "result": "deliquescent"},
      {"measurement": "hygroscopic behavior: deliquescence", "setting": "[2]; up to 80% r.h., listed as hydrochloride, hydrochloride", "result": "irreversibly deliquescent"},
      {"measurement": "hygroscopic behavior: deliquescence", "setting": "[2]; up to 90% r.h.", "result": "deliquescent"},
      {"measurement": "hygroscopic behavior: uptake of water", "setting": "[2]; up to 90% r.h.", "result": 40, "unit": "% uptake"},
      {"measurement": "loss on drying", "setting": "[3]", "result": 2.8, "unit": "%"}
    ]},
    {"compound": "CO[C@H]1COCC[C@H]1NC1CCN(C(=O)c2ncnc(NC[C@H]3CCC[C@@H](c4ccc(C)cc4)O3)c2C)CC1.CS(=O)(=O)O", "note": "[methanesulfonate salt of compound I, (4-((3R,4R)-3-methoxytetrahydro-pyran-4-ylamino)piperidin-1-yl)(5-methyl-6-(((2R,6S)-6-(p-tolyl)tetrahydro-2H-pyran-2-yl)methylamino)pyrimidin-4-yl)methanone methanesulfonate]", "values": [
      {"measurement": "crystallinity", "setting": "[1]; listed as methanesulfonate salt of compound of formula (I), methanesulfonate", "result": "medium crystallinity"},
      {"measurement": "crystallinity", "setting": "[1]; methanesulfonate", "result": "Medium"},
      {"measurement": "indications for polymorphism", "setting": "[1]; listed as Methanesulfonate Salt, methanesulfonate", "result": "No"},
      {"measurement": "indications for polymorphism", "setting": "[1]; listed as methanesulfonate, methanesulfonate", "result": "only one polymorphic form"},
      {"measurement": "hygroscopic behavior: deliquescence", "setting": "[2]; up to 80% r.h.", "result": "irreversibly deliquescent"},
      {"measurement": "hygroscopic behavior: uptake of water", "setting": "[2]; up to 80% r.h. (humidity range 10-80%), listed as Methanesulfonate Salt, methanesulfonate", "result": 30, "unit": "%"},
      {"measurement": "hygroscopic behavior: uptake of water", "setting": "[2]; up to 80% r.h. (humidity range 10-80%), methanesulfonate", "result": 30, "unit": "%"},
      {"measurement": "hygroscopic behavior: uptake of water", "setting": "[2]; up to 90% r.h.", "result": 45, "unit": "%"}
    ]}
  ]
}
